# Values of other authors, collected in patent publication US20110251195A1, “ADRB2 GENE PO[…] INTRAOCULAR PRESSURE RESPONSE TO TOPICAL BETA-BLOCKERS” (Marshfield Clinic, priority 2008, published 2011).
# Test system: ADRB2 gene product (Gln27 / Glu27)
# Conditions: Glu27 versus Gln27 ADRB2 variant
smiles,measurement,value
CC(C)NCC(O)c1ccc(O)c(O)c1 (stereo not shown) [isoprenaline],fold greater isoprenaline concentration necessary to down-regulate Glu27 to the same extent as Gln27,60 fold
